Legend:
[1] = target: Tyrosine-protein kinase Lck (Homo sapiens, UniProt P06239); experiment: Inhibition of LCK
[2] = target: Mitogen-activated protein kinase 14 (Homo sapiens, UniProt Q16539); experiment: Inhibition of p38alpha
[3] = target: Cyclin-G-associated kinase (Homo sapiens) (UniProt O14976); experiment: Inhibition of GAK at 10 uM
[4] = target: Mitogen-activated protein kinase 10 (Homo sapiens, UniProt P53779); details: 10 uM
Description: Inhibition of JNK3 at 10 uM

[5] = target: Mitogen-activated protein kinase 8 (Homo sapiens) (UniProt P45983); experiment: Inhibition of JNK1 at 10 uM
[6] = target: Atypical kinase COQ8A, mitochondrial (Homo sapiens, UniProt Q8NI60); details: 10 uM
Description: Inhibition of ADCK3 at 10 uM

[7] = target: Serine/threonine-protein kinase NLK (Homo sapiens) (UniProt Q9UBE8); experiment: Inhibition of NLK at 10 uM
[8] = target: Casein kinase I isoform epsilon (Homo sapiens, UniProt P49674); details: 10 uM
Description: Inhibition of CSNK1epsilon at 10 uM

[9] = target: Serine/threonine-protein kinase 36 (Homo sapiens) (UniProt Q9NRP7); details: 10 uM
Description: Inhibition of STK36 at 10 uM

[10] = target: Ribosomal protein S6 kinase alpha-3 (Homo sapiens, UniProt P51812); experiment: Inhibition of RSK2 at 10 uM
[11] = target: Ribosomal protein S6 kinase alpha-4 (Homo sapiens, UniProt O75676); experiment: Inhibition of RSK4 at 10 uM
[12] = target: Mitogen-activated protein kinase 9 (Homo sapiens) (UniProt P45984); experiment: Inhibition of JNK2 at 10 uM
[13] = target: Mitogen-activated protein kinase 11 (Homo sapiens, UniProt Q15759); experiment: Inhibition of P38beta at 10 uM
[14] = target: Epithelial discoidin domain-containing receptor 1 (Homo sapiens, UniProt Q08345); experiment: Inhibition of DDR1 at 10 uM

Mitogen-activated protein kinase 8 (Homo sapiens), sequence (P45983 whole entry): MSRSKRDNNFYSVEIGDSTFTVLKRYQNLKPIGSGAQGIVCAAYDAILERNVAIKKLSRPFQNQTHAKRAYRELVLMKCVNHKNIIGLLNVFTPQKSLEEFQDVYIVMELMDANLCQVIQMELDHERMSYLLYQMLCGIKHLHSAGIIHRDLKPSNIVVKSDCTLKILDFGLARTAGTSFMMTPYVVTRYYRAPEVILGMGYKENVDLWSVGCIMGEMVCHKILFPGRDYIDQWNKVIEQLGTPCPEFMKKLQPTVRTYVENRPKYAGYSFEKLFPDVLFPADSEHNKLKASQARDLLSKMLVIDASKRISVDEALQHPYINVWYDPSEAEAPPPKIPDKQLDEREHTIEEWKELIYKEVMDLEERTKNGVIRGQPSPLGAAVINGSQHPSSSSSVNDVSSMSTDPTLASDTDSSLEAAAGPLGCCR
Mitogen-activated protein kinase 10, sequence (P53779 whole entry): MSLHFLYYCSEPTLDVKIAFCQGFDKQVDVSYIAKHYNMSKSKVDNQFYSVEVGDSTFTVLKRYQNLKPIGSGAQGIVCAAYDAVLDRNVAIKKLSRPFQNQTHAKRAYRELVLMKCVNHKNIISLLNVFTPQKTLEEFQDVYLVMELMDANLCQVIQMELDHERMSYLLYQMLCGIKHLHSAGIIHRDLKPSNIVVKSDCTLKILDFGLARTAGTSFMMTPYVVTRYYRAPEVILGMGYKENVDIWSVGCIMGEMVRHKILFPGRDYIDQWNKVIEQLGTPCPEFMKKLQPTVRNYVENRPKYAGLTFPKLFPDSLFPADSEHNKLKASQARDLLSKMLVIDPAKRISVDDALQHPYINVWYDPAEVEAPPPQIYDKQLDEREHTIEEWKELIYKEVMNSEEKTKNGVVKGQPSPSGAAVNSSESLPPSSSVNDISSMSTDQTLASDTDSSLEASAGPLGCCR
Cyclin-G-associated kinase (Homo sapiens), sequence (O14976 whole entry): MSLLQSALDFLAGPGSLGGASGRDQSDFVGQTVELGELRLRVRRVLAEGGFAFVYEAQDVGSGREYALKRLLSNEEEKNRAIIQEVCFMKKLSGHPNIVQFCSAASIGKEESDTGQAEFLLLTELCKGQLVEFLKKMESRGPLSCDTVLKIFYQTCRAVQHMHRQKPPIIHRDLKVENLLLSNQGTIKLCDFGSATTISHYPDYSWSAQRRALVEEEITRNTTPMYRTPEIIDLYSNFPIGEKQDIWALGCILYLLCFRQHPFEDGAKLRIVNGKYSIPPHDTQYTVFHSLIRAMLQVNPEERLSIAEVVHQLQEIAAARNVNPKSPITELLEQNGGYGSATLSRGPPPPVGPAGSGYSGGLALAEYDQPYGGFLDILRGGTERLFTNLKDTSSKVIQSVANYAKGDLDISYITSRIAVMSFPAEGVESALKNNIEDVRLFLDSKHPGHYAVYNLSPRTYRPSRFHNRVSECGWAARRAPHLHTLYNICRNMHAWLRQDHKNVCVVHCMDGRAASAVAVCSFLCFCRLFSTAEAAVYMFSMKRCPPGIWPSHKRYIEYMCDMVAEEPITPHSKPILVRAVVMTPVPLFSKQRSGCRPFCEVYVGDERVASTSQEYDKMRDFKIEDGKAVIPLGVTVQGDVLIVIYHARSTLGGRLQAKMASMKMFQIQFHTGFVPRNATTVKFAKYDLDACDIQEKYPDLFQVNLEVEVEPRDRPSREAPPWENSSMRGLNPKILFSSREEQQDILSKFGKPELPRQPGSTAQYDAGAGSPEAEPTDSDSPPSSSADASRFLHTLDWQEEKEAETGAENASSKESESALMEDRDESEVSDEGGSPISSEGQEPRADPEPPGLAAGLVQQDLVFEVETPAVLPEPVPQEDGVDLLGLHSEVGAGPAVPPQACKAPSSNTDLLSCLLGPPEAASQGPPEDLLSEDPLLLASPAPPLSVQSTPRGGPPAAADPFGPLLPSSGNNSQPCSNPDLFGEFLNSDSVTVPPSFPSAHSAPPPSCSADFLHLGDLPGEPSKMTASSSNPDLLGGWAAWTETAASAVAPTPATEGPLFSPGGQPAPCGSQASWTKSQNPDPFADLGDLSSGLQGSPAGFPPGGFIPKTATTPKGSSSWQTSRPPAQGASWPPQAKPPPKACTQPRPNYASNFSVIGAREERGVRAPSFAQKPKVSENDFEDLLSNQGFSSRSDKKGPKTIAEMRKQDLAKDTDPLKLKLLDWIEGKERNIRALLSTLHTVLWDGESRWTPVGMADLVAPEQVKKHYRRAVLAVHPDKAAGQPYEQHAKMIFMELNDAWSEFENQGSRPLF
Tyrosine-protein kinase Lck, sequence (P06239 whole entry): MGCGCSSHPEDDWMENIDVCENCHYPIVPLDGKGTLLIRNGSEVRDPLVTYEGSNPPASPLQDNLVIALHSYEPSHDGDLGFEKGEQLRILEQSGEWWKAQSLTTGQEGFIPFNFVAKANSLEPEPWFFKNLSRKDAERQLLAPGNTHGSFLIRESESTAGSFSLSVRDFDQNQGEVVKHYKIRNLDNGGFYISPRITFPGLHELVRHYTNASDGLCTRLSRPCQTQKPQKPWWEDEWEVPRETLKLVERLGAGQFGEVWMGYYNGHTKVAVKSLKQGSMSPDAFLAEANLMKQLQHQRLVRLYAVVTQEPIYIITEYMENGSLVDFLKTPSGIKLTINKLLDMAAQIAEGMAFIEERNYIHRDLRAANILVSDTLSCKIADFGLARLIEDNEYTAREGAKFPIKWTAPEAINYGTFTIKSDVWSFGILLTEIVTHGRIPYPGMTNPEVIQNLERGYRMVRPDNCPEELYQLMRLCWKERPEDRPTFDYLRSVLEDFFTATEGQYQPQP
Mitogen-activated protein kinase 14, sequence (Q16539 whole entry): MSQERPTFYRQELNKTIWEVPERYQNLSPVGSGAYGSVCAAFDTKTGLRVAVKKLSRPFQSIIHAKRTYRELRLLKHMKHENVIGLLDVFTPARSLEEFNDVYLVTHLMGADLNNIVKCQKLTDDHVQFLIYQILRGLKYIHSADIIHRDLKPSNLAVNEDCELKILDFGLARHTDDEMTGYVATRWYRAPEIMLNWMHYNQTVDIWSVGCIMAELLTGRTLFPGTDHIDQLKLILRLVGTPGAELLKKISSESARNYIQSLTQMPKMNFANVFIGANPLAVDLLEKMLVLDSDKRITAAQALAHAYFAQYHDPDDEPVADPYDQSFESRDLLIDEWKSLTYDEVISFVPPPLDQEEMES
Mitogen-activated protein kinase 11, sequence (Q15759 whole entry, the tested form may be a part): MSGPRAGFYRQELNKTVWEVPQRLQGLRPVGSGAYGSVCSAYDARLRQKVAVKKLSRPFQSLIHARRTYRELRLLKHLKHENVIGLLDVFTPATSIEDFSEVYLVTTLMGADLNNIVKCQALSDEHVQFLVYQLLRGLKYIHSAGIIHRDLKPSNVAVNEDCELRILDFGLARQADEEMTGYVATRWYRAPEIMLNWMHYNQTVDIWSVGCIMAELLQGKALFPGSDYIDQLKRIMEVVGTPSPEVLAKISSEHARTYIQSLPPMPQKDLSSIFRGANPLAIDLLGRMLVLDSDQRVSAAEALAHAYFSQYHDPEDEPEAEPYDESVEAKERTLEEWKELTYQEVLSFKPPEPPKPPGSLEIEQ
Ribosomal protein S6 kinase alpha-4, sequence (O75676 whole entry, looked up): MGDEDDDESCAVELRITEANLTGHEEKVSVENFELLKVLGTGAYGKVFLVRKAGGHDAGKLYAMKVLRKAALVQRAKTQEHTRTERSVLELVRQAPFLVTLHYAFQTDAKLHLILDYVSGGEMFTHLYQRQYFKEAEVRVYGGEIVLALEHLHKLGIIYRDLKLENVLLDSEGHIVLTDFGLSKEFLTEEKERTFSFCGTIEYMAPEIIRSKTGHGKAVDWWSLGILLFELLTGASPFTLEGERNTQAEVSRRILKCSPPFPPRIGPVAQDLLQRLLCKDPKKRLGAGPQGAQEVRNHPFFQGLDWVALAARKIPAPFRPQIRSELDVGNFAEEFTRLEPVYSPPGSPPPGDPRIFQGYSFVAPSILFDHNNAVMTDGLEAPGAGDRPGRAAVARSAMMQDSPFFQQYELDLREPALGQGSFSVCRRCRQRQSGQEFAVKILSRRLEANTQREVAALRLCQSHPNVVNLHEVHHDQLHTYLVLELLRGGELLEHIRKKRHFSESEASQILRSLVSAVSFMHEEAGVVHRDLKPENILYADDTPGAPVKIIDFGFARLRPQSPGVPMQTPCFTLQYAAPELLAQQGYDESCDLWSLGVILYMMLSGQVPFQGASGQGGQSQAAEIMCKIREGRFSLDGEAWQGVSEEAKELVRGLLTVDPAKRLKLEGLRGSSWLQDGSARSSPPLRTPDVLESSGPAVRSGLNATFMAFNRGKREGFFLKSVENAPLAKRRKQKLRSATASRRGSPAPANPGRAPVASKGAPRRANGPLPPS
Mitogen-activated protein kinase 9 (Homo sapiens), sequence (P45984 whole entry, looked up): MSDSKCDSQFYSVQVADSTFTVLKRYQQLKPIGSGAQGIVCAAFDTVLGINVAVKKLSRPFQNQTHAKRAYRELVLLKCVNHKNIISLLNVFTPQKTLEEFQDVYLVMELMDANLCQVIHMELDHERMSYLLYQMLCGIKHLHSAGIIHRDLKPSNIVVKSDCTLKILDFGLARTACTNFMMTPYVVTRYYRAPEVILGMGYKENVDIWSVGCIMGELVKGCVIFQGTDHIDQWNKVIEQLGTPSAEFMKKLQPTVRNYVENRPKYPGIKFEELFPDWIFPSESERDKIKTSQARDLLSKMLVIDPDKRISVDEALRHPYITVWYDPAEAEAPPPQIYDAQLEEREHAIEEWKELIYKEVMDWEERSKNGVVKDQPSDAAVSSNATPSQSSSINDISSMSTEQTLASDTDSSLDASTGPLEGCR

| Kd [1] [µM] | Kd [2] [µM] | Structure (SMILES) | inhibition [3] [%] | inhibition [4] [%] | inhibition [5] [%] | inhibition [6] [%] | inhibition [7] [%] | inhibition [8] [%] | inhibition [9] [%] | inhibition [10] [%] | inhibition [11] [%] | inhibition [12] [%] | inhibition [13] [%] | inhibition [14] [%] |
| --- | --- | --- | --- | --- | --- | --- | --- | --- | --- | --- | --- | --- | --- | --- |
| > 20 | 0.032 | O=C1Nc2nc(N[C@H]3CC[C@H](O)CC3)ncc2CN1c1ccccc1Cl |  |  |  |  |  |  |  |  |  |  |  |  |
|  |  | Cn1c(=O)c(Oc2ccc(F)cc2F)cc2cnc(NC3CCOCC3)nc21 | > 85 | > 85 | > 85 | > 85 | > 85 | > 85 | > 85 | > 85 | > 85 | > 85 | > 85 | > 85 |
